# Results as given in PubChem BioAssay AID463094 (The Scripps Research Institute Molecular Screening Center, 2010).
# Activity calls are given as the source filed them.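 Rule for the calls: active = inhibition at or above 90%; inactive = inhibition below 90%.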
# Target: Glutathione S-transferase omega-1 (Homo sapiens) (UniProt P78417)
# Assay: in situ GSTO1 inhibitors in cancer cells, late-stage follow-up, cell-based, MDA-MB-435, in-gel fluorescence (AID 463094)
# Settings: MDA-MB-435 in situ, competitive ABPP gel fluorescence, 1 h; at 1 µM; hits give high values
# Chain of Glutathione S-transferase omega-1 (Homo sapiens) (P78417 whole entry, looked up): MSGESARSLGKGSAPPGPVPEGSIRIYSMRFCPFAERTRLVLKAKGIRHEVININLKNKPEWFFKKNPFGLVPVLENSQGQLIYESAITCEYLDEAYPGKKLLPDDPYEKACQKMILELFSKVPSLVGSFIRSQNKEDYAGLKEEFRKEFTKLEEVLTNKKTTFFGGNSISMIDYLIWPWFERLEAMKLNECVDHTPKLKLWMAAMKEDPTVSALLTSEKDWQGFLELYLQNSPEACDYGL
row,SMILES,inhibition
1,C#CCNC(=O)C(c1ccc(OC)cc1)N(C(=O)CCl)c1ccc(Cl)cc1 (stereo not given),30% (inactive)
2,C#CCN(CCCN(C(=O)CCl)c1ccc([N+](=O)[O-])cc1)C(=O)C(F)(F)F,100%
3,CCOC(=O)c1sc(N(Cc2ccccc2)C(=O)CCl)nc1C,65% (inactive)
4,COc1ccc(N(C(=O)CCl)C(C(=O)NC2CCCCC2)c2cccnc2)cc1 (stereo not given),95%
5,C#CCNC(=O)C(c1ccc(OC)cc1)N(C(=O)CCl)c1cccc(Cl)c1 (stereo not given),77% (inactive)
6,O=C(NC1CCCCC1)C(c1cccnc1)N(C(=O)CCl)c1ccc(F)cc1 (stereo not given),100%
7,Cc1cccc(CN2CCN(C(=O)CCl)CC2)c1,53% (inactive)
8,O=S(=O)(c1ccc(Cl)cc1)N1CCC2(CC1)CO2,17% (inactive)
9,C#CCCCCNC(=O)C(c1ccc(OC)cc1)N(C(=O)CCl)c1cccc(Cl)c1 (stereo not given),90%
10,COc1ccc(N(C(=O)CCl)C(C(=O)NCCc2ccccc2)c2cccs2)cc1Cl (stereo not given),95%

# Next, values leading:
row,inhibition,SMILES
1,95%,C#CCCCCNC(=O)C(c1cccnc1)N(C(=O)CCl)c1ccc(F)cc1 (stereo not given)
2,100%,O=C(NC1CCCCC1)C(c1cccnc1)N(C(=O)CCl)c1cccc(Cl)c1 (stereo not given)
3,100%,COc1ccc(C(C(=O)NC2CCCCC2)N(C(=O)CCl)c2cccc(Cl)c2)cc1 (stereo not given)
4,97%,C#CCCC(=O)NCCCN(C(=O)CCl)c1ccc([N+](=O)[O-])cc1
5,60% (inactive),COc1ccc(C(C(=O)NC2CCCCC2)N(C(=O)CCl)c2ccc(Cl)cc2)cc1 (stereo not given)
